The values below come from PubChem BioAssay AID1259408 (Genetic Toxicology Data Bank (GENE-TOX), 2018).

The test system of this data set is GENE-TOX genotoxicity assays, various organisms and cells. Briefly: GENE-TOX mutagenicity studies. The following applies: for call: Assay Type: In vivo carcinogenicity studies, Assay Code: CCG+.
Setting [1] is: Species/Cell Type: Human, Assay Type: Sister-chromatid exchange (SCE) in vitro, Assay Code: SC1+D, Dose Response: With dose response, Evaluation Type: Evaluation B (Post-1980).
Setting [2] is: Species/Cell Type: Allium cepa, Assay Type: Chromosome aberrations, Assay Code: ALC+D, Dose Response: With dose response, Evaluation Type: Evaluation A (Pre-1980).
Setting [3] is: Species/Cell Type: Salmonella typhimurium (one or more of the five standard strains: TA98, TA100, TA1535, TA1537, and TA1538), Assay Type: Histidine reverse gene mutation, Ames assay, Assay Code: SAL+*, Activation: With metabolic activation, Evaluation Type: Evaluation A (Pre-1980).
The mark [4] stands for this setting: Species/Cell Type: Nonhuman, Assay Type: Sister-chromatid exchange (SCE) in vivo, Assay Code: SC3+D, Dose Response: With dose response, Evaluation Type: Evaluation B (Post-1980).
Setting [5] is: Species/Cell Type: Nonhuman, Evaluation Type: Evaluation A (Pre-1980).
Setting [6] is: Species/Cell Type: Escherichia coli polA (W3119 vs P3478), Assay Type: Rec-assay, DNA effects (bacterial DNA repair), Assay Code: RE1T, Evaluation Type: Evaluation A (Pre-1980).
The mark [7] stands for this setting: Species/Cell Type: Salmonella typhimurium (one or more of the five standard strains: TA98, TA100, TA1535, TA1537, and TA1538), Assay Type: Histidine reverse gene mutation, Ames assay, Assay Code: SAL-, Evaluation Type: Evaluation A (Pre-1980).
The mark [8] stands for this setting: Species/Cell Type: Salmonella typhimurium (one or more of the five standard strains: TA98, TA100, TA1535, TA1537, and TA1538), Assay Type: Histidine reverse gene mutation, Ames assay, Assay Code: SALT, Evaluation Type: Evaluation A (Pre-1980).
Setting [9] is: Species/Cell Type: Salmonella typhimurium (one or more of the five standard strains: TA98, TA100, TA1535, TA1537, and TA1538), Assay Type: Histidine reverse gene mutation, Ames assay, Assay Code: SAL+, Evaluation Type: Evaluation A (Pre-1980).
The mark [10] stands for this setting: Species/Cell Type: Hordeum vulgare (barley), Assay Type: Chromosome aberrations, Assay Code: HOC+, Evaluation Type: Evaluation A (Pre-1980).
The mark [11] stands for this setting: Species/Cell Type: Vicia faba, Assay Type: Chromosome aberrations, Assay Code: VIC+, Evaluation Type: Evaluation A (Pre-1980).

Molecules are shown by their SMILES. The source made the active and inactive calls. How the calls were made is not given here.

Turning to `CC(=O)O[C@]1(C(C)=O)CC[C@H]2[C@@H]3C[C@H](C)C4=CC(=O)CC[C@]4(C)[C@H]3CC[C@@]21C`, the mutagenic call runs as follows: under setting [1], “active; positive”; (Species/Cell Type: Human, Sex: Male, Assay Type: Sperm morphology, Assay Code: SPH+, Evaluation Type: Evaluation A (Pre-1980)) “active; positive”; (Species/Cell Type: Nonhuman, Assay Type: Sister-chromatid exchange (SCE) in vivo, Assay Code: SC3+, Evaluation Type: Evaluation B (Post-1980)) “active; positive”.

For the molecule `CN1CCN(CCCN2c3ccccc3Sc3ccc(S(=O)(=O)N(C)C)cc32)CC1`, for the setting “Species/Cell Type: Rodents, Sex: Male, Assay Type: Dominant lethal test, Assay Code: DLT-, Evaluation Type: Evaluation A (Pre-1980)”, the mutagenic call is “inactive; negative”.

Turning to `[CH3][Hg+]`, the mutagenic call by setting is: under setting [2], “active; positive”; (Species/Cell Type: Drosophila melanogaster, Assay Type: Aneuploidy, sex chromosome gain, chromosome aberrations, Assay Code: DAG+M+F, Evaluation Type: Evaluation A (Pre-1980)) “active; positive”; (Species/Cell Type: Drosophila melanogaster, Assay Type: Aneuploidy, whole sex chromosome loss, chromosome aberrations, Assay Code: DAC+M+F, Evaluation Type: Evaluation A (Pre-1980)) “active; positive”.

`O=C(O)CNCP(=O)(O)O`: the mutagenic call was “active; positive” (Species/Cell Type: Human lymphocytes, Assay Type: Sister-chromatid exchange (SCE) in vitro, Assay Code: SCL+, Evaluation Type: Evaluation B (Post-1980)) and “active; positive” (Species/Cell Type: Human, Assay Type: Sister-chromatid exchange (SCE) in vitro, Assay Code: SC1+, Evaluation Type: Evaluation B (Post-1980)).

For the molecule `CC1C=Cc2c1ccc1c2ccc2ccccc21` (centres undefined), under setting [3], the mutagenic call was “active; positive”.

Consider `C1=Cc2c3c1cccc3cc1ccc3ccccc3c21`, for which the mutagenic call under setting [4] was “active; positive”.

`Cc1ccc2c(c1N)C(=O)c1ccccc1C2=O`: under setting [5], the call is “active; positive”.

`O=c1ccc2ccccc2o1`: under setting [2], the mutagenic call is “active; positive”.

For the molecule `O=C1c2ccccc2-c2ccccc21`, under setting [6], the mutagenic call was “no conclusion”.

As to `CN(N=O)C1=Nc2ccc(Cl)cc2C(c2ccccc2)=[N+]([O-])C1`, the mutagenic call (Species/Cell Type: Saccharomyces cerevisiae, Assay Type: Mitotic recombination or gene conversion, Assay Code: YEC+*, Activation: With metabolic activation, Evaluation Type: Evaluation A (Pre-1980)) was “active; positive”; the mutagenic call (Species/Cell Type: Salmonella typhimurium, Assay Type: Forward and reverse gene mutation, host-mediated assay, Assay Code: HMA+, Evaluation Type: Evaluation A (Pre-1980)) was “active; positive”.

Regarding `O=C(O)C1=NN(c2ccc(S(=O)(=O)O)cc2)C(=O)C1N=Nc1ccc(S(=O)(=O)O)cc1` (centres undefined), the mutagenic call is, setting by setting: (Species/Cell Type: Bacillus subtilis (H17 vs M45T), Assay Type: Rec-assay, spot test, DNA effects (bacterial DNA repair), Assay Code: REXT, Evaluation Type: Evaluation A (Pre-1980)) “no conclusion”; (Species/Cell Type: Fischer rat embryo (RLV/1706) cells, Assay Type: Cell transformation, viral enhanced, Assay Code: CTR-, Evaluation Type: Evaluation A (Pre-1980)) “inactive; negative”; (Species/Cell Type: Mammalian polychromatic erythrocytes, Assay Type: Micronucleus test, chromosome aberrations, Assay Code: MNTT, Evaluation Type: Evaluation B (Post-1980)) “no conclusion”; (Species/Cell Type: Saccharomyces cerevisiae, Assay Type: Mitotic recombination or gene conversion, Assay Code: YEC-, Evaluation Type: Evaluation A (Pre-1980)) “inactive; negative”; under setting [7], “inactive; negative”.

With `Oc1c(Br)cc(Br)c2cccnc12`, the mutagenic call under setting [8] is reported as “no conclusion”.

In the case of `O=[N+]([O-])c1ccc(-c2nc(NCC(O)CO)c3ccccc3n2)s1` (centres undefined), the mutagenic call under setting [8] is recorded as “no conclusion”.

`O=C1c2ccccc2C(=O)c2c(O)c(S(=O)(=O)O)cc(O)c21`: under setting [9], the mutagenic call was “active; positive”.

Turning to `CC(=O)O[C@@H]1[C@@H](O)[C@H]2O[C@@H]3C=C(C)C(=O)[C@@H](O)[C@]3(CO)[C@]1(C)[C@]21CO1`, the mutagenic call was “inactive; negative” (Species/Cell Type: Bacillus subtilis (H17 vs M45), Assay Type: Rec-assay, spot test, DNA effects (bacterial DNA repair), Assay Code: REW-, Evaluation Type: Evaluation A (Pre-1980)) and “no conclusion” under setting [8].

As to `Nc1c(Cl)cc([N+](=O)[O-])cc1Cl`, the mutagenic call is, setting by setting: (Species/Cell Type: Aspergillus nidulans, Assay Type: Aneuploidy, chromosome aberrations, Assay Code: ASNT, Evaluation Type: Evaluation A (Pre-1980)) “no conclusion”; (Species/Cell Type: Bacillus subtilis (H17 vs M45), Assay Type: Rec-assay, spot test, DNA effects (bacterial DNA repair), Assay Code: REWT, Evaluation Type: Evaluation A (Pre-1980)) “no conclusion”; under setting [10], “active; positive”; under setting [11], “active; positive”.

With `CC=O`, the mutagenic call was “active; positive” (Species/Cell Type: Escherichia coli polA (W3119 vs P3478), Assay Type: Rec-assay, DNA effects (bacterial DNA repair), Assay Code: RE1+, Evaluation Type: Evaluation A (Pre-1980)); “active; positive” (Species/Cell Type: Human lymphocytes, Assay Type: Sister-chromatid exchange (SCE) in vitro, Assay Code: SCL+D, Dose Response: With dose response, Evaluation Type: Evaluation A (Pre-1980)); “active; positive” (Species/Cell Type: Human, Assay Type: Sister-chromatid exchange (SCE) in vitro, Assay Code: SC1+D, Dose Response: With dose response, Evaluation Type: Evaluation A (Pre-1980)); “active; positive” (Species/Cell Type: Nonhuman, Assay Type: Sister-chromatid exchange (SCE) in vitro, Assay Code: SC2+, Evaluation Type: Evaluation A (Pre-1980)); “active; positive” under setting [4].

As to `N[C@@H](Cc1ccc(N(CCCl)CCCl)cc1)C(=O)O`, the mutagenic call by setting is: (Species/Cell Type: Drosophila melanogaster, Assay Type: Sex-linked recessive lethal gene mutation, Assay Code: SRL+, Evaluation Type: Evaluation A (Pre-1980)) “active; positive”; (Species/Cell Type: Drosophila melanogaster, Sex: Male, Assay Type: Heritable translocation test, chromosome aberrations, Assay Code: DHTT, Evaluation Type: Evaluation A (Pre-1980)) “no conclusion”; (Species/Cell Type: Escherichia coli polA (W3110 vs P3478), Assay Type: Rec-assay, DNA effects (bacterial DNA repair), Assay Code: RE2+, Evaluation Type: Evaluation A (Pre-1980)) “active; positive”; under setting [6], “no conclusion”; (Species/Cell Type: Human cell culture, Assay Type: Chromosome aberrations in vitro, Assay Code: CYZ+, Evaluation Type: Evaluation A (Pre-1980)) “active; positive”; (Species/Cell Type: Human lymphocytes, Assay Type: Sister-chromatid exchange (SCE) in vitro, Assay Code: SCL+, Evaluation Type: Evaluation A (Pre-1980)) “active; positive”. The mutagenic call was “active; positive” (Species/Cell Type: Human lymphocytes, Assay Type: Sister-chromatid exchange (SCE) in vitro, Assay Code: SCL+D, Dose Response: With dose response, Evaluation Type: Evaluation B (Post-1980)); “active; positive” (Species/Cell Type: Human lymphocytes, Assay Type: Sister-chromatid exchange (SCE) in vivo, Assay Code: SCY+, Evaluation Type: Evaluation B (Post-1980)); “active; positive” under setting [1]; “active; positive” (Species/Cell Type: Mouse (C3H/10T1/2) cells, Assay Type: Cell transformation, Assay Code: CTH+, Evaluation Type: Evaluation A (Pre-1980)); “active; positive” (Species/Cell Type: Nonhuman, Assay Type: Chromosome aberrations in vitro, Assay Code: CY&+, Evaluation Type: Evaluation A (Pre-1980)); “active; positive” (Species/Cell Type: Nonhuman, Assay Type: Sister-chromatid exchange (SCE) in vitro, Assay Code: SC2+D, Dose Response: With dose response, Evaluation Type: Evaluation A (Pre-1980)). Further, under setting [9], the mutagenic call is “active; positive”. Moreover, the call under setting [5] was “active; positive”.

In the case of `COC(=O)CCN1CC1`, under “Species/Cell Type: Schizosaccharomyces pombe, Assay Type: Reverse gene mutation, Assay Code: YEZ+, Evaluation Type: Evaluation A (Pre-1980)”, the mutagenic call is “active; positive”.

For the molecule `C=C=O`, the mutagenic call runs as follows: under setting [9], “active; positive”; (Species/Cell Type: Tradescantia species, Assay Type: Chromosome aberrations, Assay Code: TRC+, Evaluation Type: Evaluation A (Pre-1980)) “active; positive”.

On to `Cc1c2c(c3ccc4ccccc4c3c1C)CCC2=O`, for which the mutagenic call under setting [3] was “active; positive”.

In the case of `Clc1ccc(Br)cc1`, the mutagenic call is “inactive; negative” (Species/Cell Type: Saccharomyces cerevisiae, Assay Type: Mitotic recombination or gene conversion, Assay Code: YEH-, Evaluation Type: Evaluation A (Pre-1980)) and “inactive; negative” under setting [7].

With `Clc1ccc(COC(Cn2ccnc2)c2ccc(Cl)cc2Cl)cc1` (centres undefined), where the note is “Species/Cell Type: Aspergillus nidulans, Assay Type: Aneuploidy, chromosome aberrations, Assay Code: ASN+, Evaluation Type: Evaluation A (Pre-1980)”, the mutagenic call was “active; positive”.

In the case of `CON(C)C(=O)Nc1ccc(Cl)c(Cl)c1`, the mutagenic call runs as follows: under setting [10], “active; positive”; under setting [8], “no conclusion”; under setting [11], “active; positive”.
